EC50 data for 27 molecules are collected here from patent publication US11040033B2 (Gilead Sciences, Inc., priority 2017, dated 2021).

In general, EC50 refers to the concentration at which the effect is half-maximal.

Each structure is given as a SMILES string.

For the test, the target named is T1, IDO1 (Homo sapiens, UniProt P14902).
T1 construct: HeLa cells were treated with a test compound in the presence of IFNγ, which induces IDO1 expression; endogenous in cells; host or cells: H1-HeLa cells (ATCC #CRL-1958), induced with IFNγ
T1 sequence (P14902 whole entry): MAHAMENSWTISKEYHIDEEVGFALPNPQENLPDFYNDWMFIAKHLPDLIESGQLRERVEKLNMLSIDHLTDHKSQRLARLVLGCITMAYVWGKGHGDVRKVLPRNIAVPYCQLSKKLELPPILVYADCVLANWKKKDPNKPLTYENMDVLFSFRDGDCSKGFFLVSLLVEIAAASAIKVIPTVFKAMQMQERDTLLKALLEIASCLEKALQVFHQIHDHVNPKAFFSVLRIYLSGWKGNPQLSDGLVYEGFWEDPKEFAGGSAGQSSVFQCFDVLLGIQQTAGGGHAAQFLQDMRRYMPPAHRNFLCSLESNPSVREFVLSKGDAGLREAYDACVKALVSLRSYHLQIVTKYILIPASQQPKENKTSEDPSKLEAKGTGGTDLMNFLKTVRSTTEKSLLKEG
The test can be described thus: Cell-based (HeLa) assay for measurement of IDO1 inhibition (kynurenine levels in supernatant after IFNγ induction). To be noted: H1-HeLa cells, IFNγ-induced IDO1, 48 hour incubation, kynurenine absorbance at 480 nm; geometric mean of a minimum of four determinations. How it is done:
To measure IDO1 inhibition in tissue culture, HeLa cells were treated with a test compound in the presence of IFNγ, which induces IDO1 expression. Following incubation, cell supernatants were assayed for kynurenine levels, an indicator of IDO1 activity.
H1-HeLa cells (ATCC #CRL-1958) were seeded in 384-well plates (Greiner #82051-282) at a volume […] (Corning #15-018-CM) supplemented with 10% FBS (Corning #35-011-CV) and 1% P/S/G (Corning #30-009-CL) at a density of 1,250 cells/well and incubated overnight at 37° C., 5% CO2/100% humidity. The following day, the test compounds were added in DMSO (0.5% final) at various concentrations, and IDO1 was inducibly expressed by the addition of 50 uL/well of 50 ng/mL of INFγ(Peprotech #300-02) in cell plating media. As a positive control, 50 uL of the cell plating media without IFNγ was added to several wells. Following a 48 hour incubation, the plates were spun down at 1,200 RPM for 5 min at 10° C. 65 μL/well of the supernatant was then transferred to new 384-well plates (Thermo #262160) that contained 10 uL/well of 30% TCA (Sigma #T0699), and the plates were sealed and incubated at 60° C. for 30 min. The plates were then centrifuged for 15 min at 2,000 RPM at 10° C. 40 μL/well of the supernatant was transferred to new 384-well plates (Thermo #262160) and was reacted with 40 μL/well of 2% (w/v) p-dimethylaminobenzaldehyde (Sigma #156417) in glacial acetic acid (Sigma #A6283). The reaction was incubated at room temperature for 10 min and absorbance at 480 nm was read using a PerkinElmer Envision plate reader.
Data in Table 1 were normalized based on positive (−IFNγ) and negative (+IFNγ) controls and EC50 values were calculated from the fit of the dose-response curves to a four-parameter equation. All EC50 values represent geometric mean values of a minimum of four determinations. These assays generally produced results within 2-fold of the reported mean.
Regarding `O=C(Nc1ccc(F)cc1)c1cc(-c2cccn3c(-c4cccc(F)c4F)ncc23)ccc1C1CC1` [Example 62, 2-cyclopropyl-5-(3-(2,3-difluorophenyl)imidazo[1,5-a]pyridin-8-yl)-N-(4-fluorophenyl)benzamide], the EC50 was found to be 15.2 nM.
Then `Cc1ncc(-c2cccn3c(-c4cccc(F)c4F)ncc23)cc1C(=O)Nc1ccc(F)c(Br)c1` [Example 63, N-(3-bromo-4-fluorophenyl)-5-(3-(2,3-difluorophenyl)imidazo[1,5-a]pyridin-8-yl)-2-methylnicotinamide], with 307 nM.
With `Cc1ncc(-c2cccn3c(-c4cccc(F)c4F)ncc23)cc1C(=O)Nc1ccc(Cl)cc1F` [Example 64, N-(4-chloro-2-fluorophenyl)-5-(3-(2,3-difluorophenyl)imidazo[1,5-a]pyridin-8-yl)-2-methylnicotinamide], the EC50 turned out to be 24.3 nM.
Then `Cc1cnc(-c2cccn3c(-c4cccc(F)c4F)ncc23)nc1C(=O)Nc1ccc(F)cc1` [Example 65, 2-(3-(2,3-difluorophenyl)imidazo[1,5-a]pyridin-8-yl)-N-(4-fluorophenyl)-5-methylpyrimidine-4-carboxamide], with 399 nM.
Then `Cc1ncc(-c2cccn3c(-c4cccc(F)c4F)ncc23)cc1C(=O)Nc1ccccc1` [Example 66, 5-(3-(2,3-difluorophenyl)imidazo[1,5-a]pyridin-8-yl)-2-methyl-N-phenylnicotinamide], with 15.3 nM; and `Cc1ncc(-c2cccn3c(-c4cccc(F)c4F)ncc23)cc1C(=O)Nc1ccc(OC(F)F)cc1` [Example 67, N-(4-(difluoromethoxy)phenyl)-5-(3-(2,3-difluorophenyl)imidazo[1,5-a]pyridin-8-yl)-2-methylnicotinamide], with 79.5 nM.
Then `Cc1ncc(-c2cccn3c(-c4cccc(F)c4F)ncc23)cc1C(=O)Nc1ccc(F)c(F)c1` [Example 68], with 101 nM; and `Cc1ncc(-c2cccn3c(-c4cccc(F)c4F)ncc23)cc1C(=O)Nc1ccncc1` [Example 69, 5-(3-(2,3-difluorophenyl)imidazo[1,5-a]pyridin-8-yl)-2-methyl-N-(pyridin-4-yl)nicotinamide], with 57.6 nM.
In turn, `O=C(Nc1ccc(F)cc1)c1cc(-c2cccn3c(-c4cccc(F)c4F)ncc23)ccc1Cl` [Example 70, 2-chloro-5-(3-(2,3-difluorophenyl)imidazo[1,5-a]pyridin-8-yl)-N-(4-fluorophenyl)benzamide] registered an EC50 of 12.2 nM.
Then `Cc1cc(NC(=O)c2cc(-c3cccn4c(-c5cccc(F)c5F)ncc34)cnc2C)ccn1` [Example 71, 5-(3-(2,3-difluorophenyl)imidazo[1,5-a]pyridin-8-yl)-2-methyl-N-(2-methylpyridin-4-yl)nicotinamide], with 656 nM; and `Cc1ncc(-c2cccn3c(-c4cccc(F)c4F)ncc23)cc1C(=O)Nc1cccc(OC(F)(F)F)c1` [Example 72, 5-(3-(2,3-difluorophenyl)imidazo[1,5-a]pyridin-8-yl)-2-methyl-N-(3-(trifluoromethoxy)phenyl)nicotinamide], with 380 nM.
Then `[2H]c1c([2H])c(NC(=O)c2cc(-c3cccn4c(-c5cccc(F)c5F)ncc34)cnc2C)c([2H])c([2H])c1F` [Example 73, 5-(3-(2,3-difluorophenyl)imidazo[1,5-a]pyridin-8-yl)-N-(4-fluorophenyl-2,3,5,6-d4)-2-methylnicotinamide], with 23.9 nM; and `Cc1ncc(-c2cccn3c(C4CCCC4)ncc23)cc1C(=O)Nc1ccc(F)cc1` [Example 74, 5-(3-cyclopentylimidazo[1,5-a]pyridin-8-yl)-N-(4-fluorophenyl)-2-methylnicotinamide], with 460 nM; and `Cc1ncc(-c2cccn3c(C4CCOCC4)ncc23)cc1C(=O)Nc1ccc(F)cc1` [Example 75, N-(4-fluorophenyl)-2-methyl-5-(3-(tetrahydro-2H-pyran-4-yl)imidazo[1,5-a]pyridin-8-yl)nicotinamide], with 591 nM.
Consider `Cc1ccn2c(-c3cccc(F)c3F)ncc2c1-c1cnc(C)c(C(=O)Nc2ccc(F)cc2)c1` [Example 77, 5-(3-(2,3-difluorophenyl)-7-methylimidazo[1,5-a]pyridin-8-yl)-N-(4-fluorophenyl)-2-methylnicotinamide], for which the EC50 was 730 nM.
For `Cc1cc(-c2cnc(C)c(C(=O)Nc3ccc(F)cc3)c2)c2cnc(-c3cccc(F)c3F)n2c1` [Example 78, 5-(3-(2,3-difluorophenyl)-6-methylimidazo[1,5-a]pyridin-8-yl)-N-(4-fluorophenyl)-2-methylnicotinamide], the concentration for a half-maximal effect (EC50) was 895 nM.
Then `Cc1ncc(-c2cccn3c(-c4cccc(F)c4F)nc(Cl)c23)cc1C(=O)Nc1ccc(F)cc1` [Example 79, 5-(1-chloro-3-(2,3-difluorophenyl)imidazo[1,5-a]pyridin-8-yl)-N-(4-fluorophenyl)-2-methylnicotinamide], with 118 nM; and `Cc1ncc(-c2cccn3c(-c4ccccc4Cl)ncc23)cc1C(=O)Nc1ccc(F)cc1` [Example 80, 5-(3-(2-chlorophenyl)imidazo[1,5-a]pyridin-8-yl)-N-(4-fluorophenyl)-2-methylnicotinamide], with 19.3 nM.
Then `Cc1ncc(-c2cccn3c(-c4cccc(Cl)c4)ncc23)cc1C(=O)Nc1ccc(F)cc1` [Example 81, 5-(3-(3-chlorophenyl)imidazo[1,5-a]pyridin-8-yl)-N-(4-fluorophenyl)-2-methylnicotinamide], with 235 nM; and `O=C(Nc1ccc(F)cc1)c1cc(-c2cccn3c(-c4cccc(F)c4F)ncc23)cnc1C1CC1` [Example 82, 2-cyclopropyl-5-(3-(2,3-difluorophenyl)imidazo[1,5-a]pyridin-8-yl)-N-(4-fluorophenyl)nicotinamide], with 17.5 nM.
Then `O=C(Nc1ccc(F)cc1)c1cccc(-c2cccn3c(-c4cccc(F)c4F)ncc23)n1` [Example 83, 6-(3-(2,3-difluorophenyl)imidazo[1,5-a]pyridin-8-yl)-N-(4-fluorophenyl)picolinamide], with 207 nM; and `Cc1c(F)cc(-c2cccn3c(-c4cccc(F)c4F)ncc23)cc1C(=O)Nc1ccc(F)cc1` [Example 84], with 75.3 nM.
`O=C(Nc1ccc(F)cc1)c1nc(-c2cccn3c(-c4cccc(F)c4F)ncc23)ccc1Cl` [Example 85] showed an EC50 of 52 nM.
In the case of `Cc1ncc(-c2cccn3c(-c4cccc(Cl)c4Cl)ncc23)cc1C(=O)Nc1ccc(F)cc1` [Example 86, 5-(3-(2,3-dichlorophenyl)imidazo[1,5-a]pyridin-8-yl)-N-(4-fluorophenyl)-2-methylnicotinamide], the EC50 is 30.8 nM.
Then `Cc1ncc(-c2cccn3c(-c4cccc(F)c4Cl)ncc23)cc1C(=O)Nc1ccc(F)cc1` [Example 87, 5-(3-(2-chloro-3-fluorophenyl)imidazo[1,5-a]pyridin-8-yl)-N-(4-fluorophenyl)-2-methylnicotinamide], with 13.3 nM.
Then `Cc1ncc(-c2cccn3c(-c4cccc(Cl)c4F)ncc23)cc1C(=O)Nc1ccc(F)cc1` [Example 88], with 49.5 nM.
Then `Cc1ncc(-c2cccn3c(-c4ccc(F)cc4F)ncc23)cc1C(=O)Nc1ccc(F)cc1` [Example 89, 5-(3-(2,4-difluorophenyl)imidazo[1,5-a]pyridin-8-yl)-N-(4-fluorophenyl)-2-methylnicotinamide], with 30.6 nM.
